Earlier results in US20070275095A1, “TREATMENT OF INFLAMMATORY, AUTOIMMUNE, OR OTHER DISORDERS, USING AGENTS THAT REDUCE THE SEQUESTERING OF ZINC BY CALPROTECTIN” (priority 2005, published 2007).

Legend:
neutrophil cells = settings: Oyama et al 1997
calprotectin [1] = settings: Oyama et al 1997
calprotectin [2] = settings: zinc binding not measured directly; apoptosis measured (Yui et al 1998 and 2003, Mikami et al 1999)
[3] = system: tumor necrosis factor (TNF); settings: same literature reports
[4] = clinical trials reviewed in Kidd 2002, Kern et al 2004, Esch et al 2004, Sturmey 2005

Compound | suppression of calprotectin release by neutrophils (neutrophil cells) | binding to calprotectin molecules in neutrophils (calprotectin [1]) | inhibition of zinc binding by calprotectin (calprotectin [2]) | inhibition of tumor necrosis factor (TNF) [3] | clinical trial outcome in autism [4]
CC(C)c1ccc2oc3nc(N)c(C(=O)O)cc3c(=O)c2c1 [amlexanox] | impedes and suppresses the release of calprotectin by the neutrophils | bind to calprotectin molecules contained in the neutrophils | – | – | –
O=C1N[C@@H]2C(=C[C@H](O)[C@@H](O)[C@H]2O)c2cc3c(c(O)c21)OCO3 [lycoricidinol] | – | – | appear to inhibit zinc binding by calprotectin, to some extent | appear to inhibit | –
O[C@H]1[C@H]2c3cc4c(cc3CN3CCC(=C[C@@H]1O)[C@H]23)OCO4 [lycorine] | – | – | appear to inhibit zinc binding by calprotectin, to some extent | appear to inhibit | –
secretin | – | – | – | – | mainly negative results
